Reference: article PMC12298827, “Subchronic Toxicities of Four Per- and Polyfluoroalkyl Substances (PFASs) by Oral Exposure in Sprague–Dawley Rats” (Toxics, 2025)

Tested on: male and female Sprague–Dawley rats
Assay: 90-day subchronic oral gavage toxicity study
Assay type: in vivo, rat
Design: key to NOEL, absolute liver weight increase / LOEL, absolute liver weight increase / NOEL, relative kidney weight increase / LOEL, relative kidney weight increase / NOEL, absolute kidney weight increase / LOEL, absolute kidney weight increase / NOEL, relative liver weight increase / LOEL, relative liver weight increase: NR: no response, no statistically significant dose-dependent changes
Experimental: Subchronic (90-day) studies were performed in accordance with current U.S. EPA’s Toxic Substances Control Act Good Laboratory Practice (GLP) Standards, with the following two general exceptions to the GLP guidelines: Analysis of the dose formulations was conducted according to RTI-approved Standard Operating Procedures, and corn oil (the vehicle) was not characterized (certificate of analysis from the vendor is available in the appendices to the final reports). Male and female Sprague–Dawley rats (five dose levels plus a control, n = 10/sex/dose group, corn oil vehicle dose volume of 3 mL/kg; oral gavage) were used in these studies, and the rats were euthanized on SD 91. The dose levels for PFHI were 0, 12.5, 25, 50, 100, and 200 mg/kg-day. The dose levels for MHFPK were 0, 18.8, 37.5, 75, 150, and 300 mg/kg-day. The dose levels for PFNAC were 0, 0.1, 0.3, 1.0, 3.0, and 10 mg/kg-day for male rats and 0, 0.3, 1.0, 3.0, 10, and 30 mg/kg-day for female rats. For CTFPA, the dose levels were 0, 1.9, 3.8. 7.5, 15, and 30 mg/kg-day for male rats and 0, 6.3, 12.5, 25, 50, and 100 mg/kg-day for female rats. For each PFAS, three batches of dosing solution were prepared. The time between the batch preparation of the dosing solutions ranged between 29 and 39 days. Blood samples were collected from all the rats at termination for serum chemistry, hematology, coagulation, and the analysis of the parent PFAS chemical in the plasma. In vivo data collection and further detail on the endpoints examined postmortem are described below.
The rats were observed twice daily for morbidity and mortality throughout the study period. At least once prior to randomization to test groups and weekly thereafter, the rats were physically examined, and bodyweights were obtained. Feed consumption was quantified weekly starting on SD 1.
Neurotoxicity was evaluated using the functional observational battery (FOB) and measuring locomotor activity (LMA) 2–4 h post dosing on SDs 78–80 and 80–84, respectively. For both the 14- and 90-day studies, an ophthalmologic examination was conducted prior to randomization and near the end of the study, using indirect ophthalmoscopy and slit–lamp biomicroscopy (as needed) after the administration of a mydriatic solution.
Hematology, biochemistry, and coagulation endpoints were measured at the termination of the study. A Siemens Advia 2120i hematology analyzer (Siemens Healthineers, Erlangen, Germany) was used to measure (or calculate) the parameters related to the complete blood count, leukocyte differential count, and reticulocyte count. The hematology parameters are listed and described in Table 2. The prothrombin time […] and activated partial thromboplastin time (APTT) were measured using an Instrumentation Laboratory (Bedford, MA, USA) ACL Elite Pro coagulation analyzer (laser–nephelometric centrifugal method).
At necropsy, the rats were visually examined for external abnormalities and organ weights (absolute and relative to the BW and brain weight), which were recorded (paired organs weighed together). The tissues were preserved in 10% neutral buffered formalin (NBF), except for the ocular tissues, testes, and epididymides, which were preserved in modified Davidson’s fixative and later transferred to 10% NBF. Bone marrow smears were prepared from the femurs, and the slides were air-dried, fixed in methanol, stained, and stored at room temperature for possible future evaluation. The preserved tissues were embedded in paraffin, sectioned, stained with hematoxylin and eosin, and examined by a board-certified veterinary pathologist.
Statistical analysis was performed using Provantis™ Version 10 or greater (Instem LSS, Limited; Stone, Staffordshire, UK). Differences among the treatment groups compared to the control were evaluated using one-way analysis of variance (ANOVA) if the underlying assumptions of a normal distribution (Shapiro–Wilk test) and the homogeneity of the variance (Levene’s test) were satisfied. […]

FC(F)(F)C(F)(F)C(F)(F)C(F)(F)CCI [PFHI, 1H,1H,2H,2H-Perfluorohexyl iodide]
Bodyweight (BW) and bodyweight gain (90-day, both sexes, all doses): None in females; dose-dependent reduced BW changes in males in all the dose groups, but BW gain on SDs 1-90 was not significantly affected
Clinical observations (90-day, both sexes, all doses): None
Coagulation endpoints (90-day, both sexes, all doses): Dose-dependent minimal prolongations in PT (in males at ≥12.5 mg/kg-day and in females at ≥25 mg/kg-day
Feed consumption (90-day, both sexes, all doses): No changes in males; increased feed consumption in females at 25, 50, and 100 mg/kg-day but not at 200 mg/kg-day
Functional observational battery (90-day, both sexes, all doses): No changes
Gross lesions (90-day, both sexes, all doses): None considered as PFHI related
Hematology (90-day, both sexes, all doses): Minimal decreases in reticulocytes in males at ≥50 mg/kg-day; minimal increases in MPV in females and sporadically in males at 200 mg/kg-day and in both sexes at 50 and 100 mg/kg-day
Histopathology (90-day, both sexes, all doses): The kidney and liver ^5 of males at ≥100 mg/kg-day and the liver of females at 200 mg/kg-day
Locomotor activity (90-day, both sexes, all doses): No effects
Morbidity and mortality (90-day, both sexes, all doses): None
Ophthalmology (90-day, both sexes, all doses): No ocular lesions
Organ weight changes (90-day, both sexes, all doses): Mean absolute and/or relative dose-dependent organ weight increases in the liver of females at ≥100 mg/kg-day and males at ≥25 mg/kg-day and kidney weight increases only in males at ≥100 mg/kg-day ^5
BMD10, absolute liver weight increase (female): 57.8 mg/kg-day
BMDL, absolute liver weight increase (female): 8.1 mg/kg-day
LOEL, absolute kidney weight increase (female): NR
LOEL, absolute liver weight increase (female): 200 mg/kg-day
LOEL, relative kidney weight increase (female): NR
LOEL, relative liver weight increase (female): 100 mg/kg-day
NOEL, absolute kidney weight increase (female): NR
NOEL, absolute liver weight increase (female): 100 mg/kg-day
NOEL, relative kidney weight increase (female): NR
NOEL, relative liver weight increase (female): 50 mg/kg-day
% BW Gain (female, 12.5 mg/kg-day): 61.51%
% Diff, % BW Gain (female, 12.5 mg/kg-day): 1.61%
% Diff, Total BW change (female, 12.5 mg/kg-day): 1.06%
% Diff, Total Food Consumed (female, 12.5 mg/kg-day): 0.12%
A/G (female, 12.5 mg/kg-day): 1.09±0.05 ratio
ALB (female, 12.5 mg/kg-day): 4.28 ± 0.37 g/dL
ALPi (female, 12.5 mg/kg-day): 42.8±13.0 U/L
APTT (female, 12.5 mg/kg-day): 18.80 s
BUN (female, 12.5 mg/kg-day): 16.8 ± 2.7 mg/dL
CHOL (female, 12.5 mg/kg-day): 110.5 ± 32.7 mg/dL
GLOB (female, 12.5 mg/kg-day): 3.94 ± 0.25 g/dL
GLUC (female, 12.5 mg/kg-day): 138.0 ± 29.9 mg/dL
HCT (female, 12.5 mg/kg-day): 46.90±1.85%
HGB (female, 12.5 mg/kg-day): 14.91 ± 0.54 g/dL
Kidney Weight (female, 12.5 mg/kg-day): 1.83 g
Kidney/Body Weight (female, 12.5 mg/kg-day): 0.58%
Kidney/Brain Weight (female, 12.5 mg/kg-day): 89.5%
Liver Weight (female, 12.5 mg/kg-day): 8.53 g
Liver/Body Weight (female, 12.5 mg/kg-day): 2.68%
Liver/Brain Weight (female, 12.5 mg/kg-day): 416%
MPV (female, 12.5 mg/kg-day): 7.10 ± 0.30 fL
PT (female, 12.5 mg/kg-day): 13.34 s
Total BW change (female, 12.5 mg/kg-day): 124.60 g
Total Food Consumed (female, 12.5 mg/kg-day): 1474 g
% BW Gain (female, 25 mg/kg-day): 60.67%
% Diff, % BW Gain (female, 25 mg/kg-day): 0.22%
% Diff, Total BW change (female, 25 mg/kg-day): 1.70%
% Diff, Total Food Consumed (female, 25 mg/kg-day): 7.27%
A/G (female, 25 mg/kg-day): 1.07±0.11 ratio
ALB (female, 25 mg/kg-day): 4.02 ± 0.39 g/dL
ALPi (female, 25 mg/kg-day): 54.9±21.9 U/L
APTT (female, 25 mg/kg-day): 18.59 s
BUN (female, 25 mg/kg-day): 16.2 ± 2.1 mg/dL
CHOL (female, 25 mg/kg-day): 114.9 ± 14.1 mg/dL
GLOB (female, 25 mg/kg-day): 3.78 ± 0.16 g/dL
GLUC (female, 25 mg/kg-day): 153.4 ± 30.6 mg/dL
HCT (female, 25 mg/kg-day): 48.01±1.96%
HGB (female, 25 mg/kg-day): 15.38 ± 0.54 g/dL
Kidney Weight (female, 25 mg/kg-day): 1.83 g
Kidney/Body Weight (female, 25 mg/kg-day): 0.57%
Kidney/Brain Weight (female, 25 mg/kg-day): 88.2%
Liver Weight (female, 25 mg/kg-day): 8.66 g
Liver/Body Weight (female, 25 mg/kg-day): 2.71%
Liver/Brain Weight (female, 25 mg/kg-day): 417%
MPV (female, 25 mg/kg-day): 7.32 ± 0.30 fL
PT (female, 25 mg/kg-day): 13.51 s
Total BW change (female, 25 mg/kg-day): 125.38 g
Total Food Consumed (female, 25 mg/kg-day): 1579 g
% BW Gain (female, 50 mg/kg-day): 65.42%
% Diff, % BW Gain (female, 50 mg/kg-day): 8.07%
% Diff, Total BW change (female, 50 mg/kg-day): 7.25%
% Diff, Total Food Consumed (female, 50 mg/kg-day): 8.31%
A/G (female, 50 mg/kg-day): 1.09±0.09 ratio
ALB (female, 50 mg/kg-day): 4.27 ± 0.46 g/dL
ALPi (female, 50 mg/kg-day): 43.7±5.5 U/L
APTT (female, 50 mg/kg-day): 20.46 s
BUN (female, 50 mg/kg-day): 15.7 ± 2.2 mg/dL
CHOL (female, 50 mg/kg-day): 119.7 ± 25.4 mg/dL
GLOB (female, 50 mg/kg-day): 3.91 ± 0.26 g/dL
GLUC (female, 50 mg/kg-day): 157.1 ± 16.7 mg/dL
HCT (female, 50 mg/kg-day): 47.80±2.45%
HGB (female, 50 mg/kg-day): 15.23 ± 0.72 g/dL
Kidney Weight (female, 50 mg/kg-day): 1.85 g
Kidney/Body Weight (female, 50 mg/kg-day): 0.57%
Kidney/Brain Weight (female, 50 mg/kg-day): 93.9%
Liver Weight (female, 50 mg/kg-day): 8.92 g
Liver/Body Weight (female, 50 mg/kg-day): 2.76%
Liver/Brain Weight (female, 50 mg/kg-day): 454%
MPV (female, 50 mg/kg-day): 7.47 ± 0.44 fL
PT (female, 50 mg/kg-day): 13.48 s
Total BW change (female, 50 mg/kg-day): 132.23 g
Total Food Consumed (female, 50 mg/kg-day): 1595 g
% BW Gain (female, 100 mg/kg-day): 62.41%
% Diff, % BW Gain (female, 100 mg/kg-day): 3.09%
% Diff, Total BW change (female, 100 mg/kg-day): 5.03%
% Diff, Total Food Consumed (female, 100 mg/kg-day): 13.5%
A/G (female, 100 mg/kg-day): 1.08±0.06 ratio
ALB (female, 100 mg/kg-day): 4.32 ± 0.36 g/dL
ALPi (female, 100 mg/kg-day): 49.7±18.4 U/L
APTT (female, 100 mg/kg-day): 17.57 s
BUN (female, 100 mg/kg-day): 16.7 ± 2.6 mg/dL
CHOL (female, 100 mg/kg-day): 122.7 ± 15.6 mg/dL
GLOB (female, 100 mg/kg-day): 4.00 ± 0.27 g/dL
GLUC (female, 100 mg/kg-day): 153.8 ± 19.2 mg/dL
HCT (female, 100 mg/kg-day): 46.45±1.01%
HGB (female, 100 mg/kg-day): 14.77 ± 0.32 g/dL
Kidney Weight (female, 100 mg/kg-day): 1.84 g
Kidney/Body Weight (female, 100 mg/kg-day): 0.58%
Kidney/Brain Weight (female, 100 mg/kg-day): 89.7%
Liver Weight (female, 100 mg/kg-day): 9.17 g
Liver/Body Weight (female, 100 mg/kg-day): 2.85%
Liver/Brain Weight (female, 100 mg/kg-day): 447%
MPV (female, 100 mg/kg-day): 7.34 ± 0.51 fL
PT (female, 100 mg/kg-day): 13.79 s
Total BW change (female, 100 mg/kg-day): 129.49 g
Total Food Consumed (female, 100 mg/kg-day): 1671 g
% BW Gain (female, 200 mg/kg-day): 53.53%
% Diff, % BW Gain (female, 200 mg/kg-day): -11.58%
% Diff, Total BW change (female, 200 mg/kg-day): -11.94%
% Diff, Total Food Consumed (female, 200 mg/kg-day): 6.33%
A/G (female, 200 mg/kg-day): 1.15±0.03 ratio
ALB (female, 200 mg/kg-day): 4.69 ± 0.33 g/dL
ALPi (female, 200 mg/kg-day): 46.9±15.3 U/L
APTT (female, 200 mg/kg-day): 19.34 s
BUN (female, 200 mg/kg-day): 18.0 ± 3.3 mg/dL
CHOL (female, 200 mg/kg-day): 154.8 ± 35.9 mg/dL
GLOB (female, 200 mg/kg-day): 4.10 ± 0.33 g/dL
GLUC (female, 200 mg/kg-day): 155.2 ± 21.4 mg/dL
HGB (female, 200 mg/kg-day): 14.58 ± 0.80 g/dL
Kidney Weight (female, 200 mg/kg-day): 1.83 g
Kidney/Body Weight (female, 200 mg/kg-day): 0.61%
Kidney/Brain Weight (female, 200 mg/kg-day): 91.3%
Liver Weight (female, 200 mg/kg-day): 9.65 g
Liver/Body Weight (female, 200 mg/kg-day): 3.20%
